One assay has as its target T1, CDK4/CycD1 (Homo sapiens, UniProt P11802).
T1 construct: purchased Invitrogen PR8064A
The assay can be described thus: Activity against cyclin-dependent kinase CDK4/CycD1 (Caliper EZ Reader mobility shift). The format is biochemical. The conditions noted are these: 1 h at room temperature; highest concentration 1 µM. As to the method: (§1) The test compounds (the highest concentration was 1 µM) were added using Echo 650 and serially diluted 3-fold to obtain a total of 9 concentration points. The assay plate was sealed and centrifuged at 1000 g for 1 min. 2.5× enzymes were prepared in a 1× kinase buffer (50 mM HEPES, pH 7.5, 0.0015% Brij-35, […]), and the 2.5× enzymes (10 µL) were added to the 384-well assay plate. The plate was centrifuged at 1000 g for 30 s and left to stand at room temperature for 10 min. 2.5× substrate and ATP mixtures were prepared in the 1× kinase buffer, and the 2.5× substrate and ATP mixtures (10 µL) were added to start reactions. The assay plate was centrifuged at 1000 g for 30 s, sealed, and incubated at room temperature for 1 h. 25 µL of a stop solution reagent (100 mM HEPES, pH 7.5, 0.015% Brij-35, 0.2% Coating Reagent #3, 50 mM EDTA) was added.
(§2) Conversion rate data were read on a CaliperEZ Reader. The conversion rate data were copied from the CaliperEZ Reader. The conversion rates were converted to inhibition rate data. Inhibition% = (max−conversion)/(max−min) × 100, [formula] where "min" is the reading of a control sample well to which no enzyme was added for reaction; "max" is the reading of a control well to which DMSO was added.
(§3) IC50 values were obtained by fitting using XLFit excel add-in version 5.4.0.8. Y = Bottom + (Top−Bottom)/(1+((IC50/X))^(∧)HillSlope). [formula] Table 6. […]

Assay [1] has as its system Human breast cancer cells (MDA-MB-231). The assay can be described thus: Inhibitory activity against human breast cancer cells (MDA-MB-231), CTG cell viability. The format is cell-based. The conditions noted are these: Homo sapiens, 168 h, 7 days with compound. As to the method: (§4) Human breast cancer cells (MDA-MB-231) were cultured using a DMEM culture medium containing 10% FBS in a cell incubator (37 °C, 5% CO2). On day one, the cells were plated in a 384-well plate at a cell concentration of 600 cells/well and cultured overnight in an incubator. On day two, the cells were treated with compounds. The highest compound concentration was 10 µM and was diluted 3-fold to obtain 9 concentrations, and the final concentration of DMSO was 0.2%. After the cells were cultured in the incubator for another 7 days, the cell viability was tested using a CTG Cell Viability Detection Reagent; the testing method was consistent with the method provided by the kit. Data were processed using XLFit, and IC50 was calculated. [formula] X: the logarithm of the compound concentration; Y: % inhibition. Table 8. The IC50 (nM) of a compound of the present disclosure against MDA-MB-231

Assay [2] deals with Human breast cancer cells (SUM-149PT). The assay can be described thus: Inhibitory activity against human breast cancer cells (SUM-149PT), CTG cell viability. As to conditions: Homo sapiens, SUM149PT, 120 h, 5 days with compound. The format is cell-based. The method, then: as §4, with “cells (SUM-149PT)” for “cells (MDA-MB-231)”, “of 800” for “of 600”, “another 5” for “another 7”, “Table 14.” for “Table 8.”, “against SUM-149PT” for “against MDA-MB-231”

The subject of assay [3] is Human non-small cell lung cancer cells (A549). The assay can be described thus: Inhibitory activity against human non-small cell lung cancer cells (A549), CTG cell viability. The format is cell-based. As to conditions: Homo sapiens, 120 h, 5 days with compound. The method, then:
Human non-small cell lung cancer cells (A549) were cultured using an F12K culture medium containing 10% FBS in a cell incubator (37 °C, 5% CO2). On day one, the cells were plated in a 384-well plate at a cell concentration of 300 cells/well and cultured overnight in an incubator. On day two, the cells were treated with compounds. The highest compound concentration was 10 µM and was diluted 3-fold to obtain 9 concentrations, and the final concentration of DMSO was 0.2%. After the cells were cultured in the incubator for another 5 days, the cell viability was tested using a CTG Cell Viability Detection Reagent; the testing method was consistent with the method provided by the kit. Data were processed using XLFit, and IC50 was calculated. [formula] X: the logarithm of the compound concentration; Y: % inhibition. Table 10. The IC50 (nM) of a compound of the present disclosure against A549

For the next assay, the system named is MCF-7/Palbo-R. The assay can be described thus: Inhibitory activity against CDK4/6 inhibitor-resistant human breast cancer cells (MCF-7 palbociclib-resistant cell line), cell viability. The conditions noted are these: Homo sapiens, MCF7, 120 h, 5 days with compound, CellTiter-Glo cell viability. The assay is classed as cell-based. As to the method:
MCF-7/Palbo-R cell source: MCF7 cells (Nanjing Cobioer Biosciences Co., Ltd.) were treated with 1 µM palbociclib for a long time, and drug resistance was induced.
The palbociclib-resistant breast cancer cell line MCF-7/Palbo-R was cultured using a DMEM culture medium containing 10% FBS in a cell incubator (37 °C, 5% CO2). On day one, the cells were plated in a 384-well plate at a cell concentration of 800 cells/well and cultured overnight in an incubator. On day two, the cells were treated with compounds. The highest compound concentration was 10 µM and was diluted 3-fold to obtain 9 concentrations, and the final concentration of DMSO was 0.2%. After the cells were cultured in the incubator for another 5 days, the cell viability was tested using a CellTiter-Glo luminescent cell viability assay kit; the testing method was consistent with the method provided by the kit. Data were processed using XLfit, and IC50 was calculated.
The inhibition rates (IR) of the test compounds were calculated using the following formula: IR (%) = (1 - (RLU compound - RLU blank control) / (RLU vehicle control-RLU blank control)) × 100%. Table 16. The IC50 (nM) of a compound of the present disclosure against MCF-7/Palbo-R

The next assay concerns the target T2, CDK2/CycE1 (Homo sapiens, UniProt P24941).
T2 construct: purchased Carna 04-165
The assay can be described thus: Activity against cyclin-dependent kinase CDK2/CycE1 (Caliper EZ Reader mobility shift). The assay is classed as biochemical. As to conditions: 1 h at room temperature; highest concentration 1 µM. As to the method:
as §1, §2, §3

One molecule from patent EP4752149A1, “OXYGEN-CONTAINING FUSED TRICYCLIC DERIVATIVE, AND PREPARATION METHOD THEREFOR AND USE THEREOF” (Tuojie Biotech (Shanghai) Co., Ltd., priority 2023, dated 2025) can be followed below.

The structures appear in SMILES notation.

T1 sequence (P11802 whole entry): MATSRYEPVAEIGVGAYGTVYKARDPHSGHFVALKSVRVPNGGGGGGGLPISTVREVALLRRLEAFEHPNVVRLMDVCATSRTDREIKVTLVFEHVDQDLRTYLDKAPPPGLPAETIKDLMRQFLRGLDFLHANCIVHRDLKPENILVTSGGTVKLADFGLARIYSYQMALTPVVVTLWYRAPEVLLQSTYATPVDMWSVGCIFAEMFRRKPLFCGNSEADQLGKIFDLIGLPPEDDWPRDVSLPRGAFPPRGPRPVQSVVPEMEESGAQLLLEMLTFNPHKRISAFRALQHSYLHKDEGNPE
T1 sequence (P24385 whole entry partner): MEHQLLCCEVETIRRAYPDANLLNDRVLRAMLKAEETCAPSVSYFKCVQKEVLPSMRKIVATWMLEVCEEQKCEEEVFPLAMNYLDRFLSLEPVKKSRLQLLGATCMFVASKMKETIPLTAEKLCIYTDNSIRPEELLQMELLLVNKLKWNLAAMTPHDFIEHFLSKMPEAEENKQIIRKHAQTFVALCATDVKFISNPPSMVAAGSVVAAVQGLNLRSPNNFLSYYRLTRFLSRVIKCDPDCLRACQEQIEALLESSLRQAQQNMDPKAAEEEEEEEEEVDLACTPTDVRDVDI

As to `C[C@H]1COc2c(-c3nc(Nc4ccc(N5CCOCC5=O)cc4F)ncc3Cl)cc(F)c3nc(C(C)(C)O)n1c23` [Example 1, (S)-4-(4-((5-Chloro-4-(8-fluoro-2-(2-hydroxypropan-2-yl)-3-methyl-3,4-dihydro-5-oxa-1,2a-diazaacenaphthylen-6-yl)pyrimidin-2-yl)amino)-3-fluorophenyl)morpholin-3-one], the IC50 at CDK4/CycD1 is 3.8 nM; in assay [1] it was 117 nM; in assay [2] it was 256 nM; in assay [3], 236 nM; in the assay on MCF-7/Palbo-R, 180 nM; at CDK2/CycE1, 9.8 nM.
